The text below walks through data of article PMC7848024, “Synthetic Cationic Autoantigen Mimics Glatiramer Acetate Persistence at the Site of Injection and Is Efficacious Against Experimental Autoimmune Encephalomyelitis” (Frontiers in Immunology, 2021).

“Also recorded” adds a separate entry of the source.

A short description of series [1]: Subcutaneous injection simulation (Scissor): aggregation and release. The series is classed as physicochemical. The conditions noted are these: for formation of visible aggregates in HA: 1 ml of 20 mg/ml injected into 10 mg/ml HA (1.5–1.8 MDa), Scissor cartridge, visual observation. The method, then:
The subcutaneous injection simulation was performed using the method previously described ([15]). 1 ml of 20 mg/ml K-PLP in 40 mg/ml mannitol solution was injected into Scissor cartridge containing 10 mg/ml 1.5–1.8 MDa hyaluronic acid (HA). Time points were collected over 3 days and concentration of K-PLP released into the chamber buffer was determined using a bicinchoninic acid assay (Micro BCA protein assay kit, Thermo Scientific, Waltham, MA) by constructing a calibration curve with K-PLP concentrations of 2, 5, 10, 20, 30, and 40 µg/ml. The concentration values were adjusted to account for K-PLP that was taken out during sampling and then converted to percentage of K-PLP released before plotted as a function of time.

For series [2] the following is noted: cited from earlier work; for formation of visible aggregates in the presence of HA (literature): in the presence of glycosaminoglycans such as HA. The source says:
GA consists of a broad population of peptides (average MW 5–9 kDa) comprising four amino acids (AKEY). Lysine is the predominant amino acid at ~34% of the molar mass, which imbues a strong cationic character (pI ~10). […] Approximately 30% of GA remained aggregated after 3 days according to in vitro subcutaneous (SC) injection simulation experiments. […] GEMSP consists of a mixture of fatty acid linked poly-lysine (PLL), antioxidants-PLL, free radical scavengers-PLL, and amino acids-PLL.

In series [3] the test system is EAE induced using PLP 139-151. Description: In vivo efficacy study, EAE animal model. Further details: species or system SJL/J (H-2) mice. The method, then: In vivo efficacy of K-PLP was assessed using the EAE animal model induced in female 4-6-week old SJL/J (H-2) mice (20–25 g, Envigo, Indianapolis, IN). All protocols were approved through the University’s Institutional Animal Care and Use Committee, and all animals were housed in pathogen-free conditions. EAE induction and treatment schedule were based on methods previously described ([18]–[20]). […]. Additionally, on day 0 each mouse received a 100 μl intraperitoneal injection of pertussis toxin at 100 ng/ml. This administration of pertussis toxin was repeated on day 2. Beginning on day 7, disease severity was monitored daily through the use of a symptom scoring system as follows: 0, no clinical disease symptoms; 1, weakness or limpness of the tail; 2, weakness or partial paralysis of one or two hind limbs (paraparesis); 3, full paralysis of both hind limbs (paraplegia); 4, paraplegia plus weakness or paralysis of forelimbs; 5, moribund (euthanasia necessary). Mouse weight was also recorded daily throughout the study. In vivo treatment groups consisted of 6 mice per group. Treatments were administered in 100 μl SC injections formulated in 40 mg/ml mannitol. Injections were administered between the shoulder blades. Copaxone and K-PLP were administered at 4.5 mg/ml while 9-unit poly-lysine was administered at the molar equivalent to K-PLP injections, resulting in a concentration of 1.7 mg/ml. Treatment injections were performed on days 4, 7, and 10 following EAE induction. Mouse weights were recorded daily beginning on day 0 and clinical scores were recorded daily beginning on day 7. Statistical analysis was performed using two-way analysis of variance (ANOVA) on the clinical scores and weights, one-way ANOVA on the cumulative clinical scores, followed by Turkey comparison tests for all. Statistical significance for all analyses was set at p<0.05. All statistical analyses were performed using GraphPad Software (GraphPad Software Inc.).

A further series relates to footpads of mice. Description: In vivo migration imaging: retention at the footpad injection site. The conditions noted are these: 10 μl into the footpad, cy7-labeled mixed with unlabeled compound, 20 mg/ml (PLP molar equivalent), dye 25 μM; 1-4 h; near-IR imaging; one mouse per compound.
Series [4] in a line: Dynamic light scattering particle sizing. The series is classed as physicochemical. How it is done: Raman and dynamic light scattering were performed with a Malvern Helix (Malvern Instruments, Malvern, UK). 20 μl of K-PLP at a concentration of 10 mg/ml in 150 mM citrate-phosphate buffer at pH 6 was loaded into a custom steel cuvette with quartz windows. Raman scattering from a 785 nm laser was collected in a backscattering geometry. Samples were measured in triplicate, each replicate consisted of 10 acquisitions of 10 second exposure each. The Zetasizer Helix Analyze software (Malvern Instruments) was used to buffer subtract, normalize to the phenylalanine peak (1003 cm-1), then baseline spectra for analysis. Dynamic light scattering autocorrelation functions were measured with a 632 nm laser with light collected in a 173° angle backscattering geometry. Autocorrelation functions were fit using the method of cumulants.

Experimental for footpads of mice: Herein, the labeled compounds will be referred to as cy7-GA, cy7-K-PLP, cy7-PEG and cy7-PLP.
Similar imaging method as previously described was used ([15]). Three female SJL/J mice (20-25 g, Envigo, Indianapolis, IN) were used for imaging, one each for K-PLP, PLP, and GA. Unlabeled K-PLP and unlabeled GA were mixed with cy7-K-PLP and cy7-GA, respectively, to a final concentration of 20 mg/ml with the amount of dye normalized to the equivalent of 25 μM of free cyanine 7 dye. Similarly, unlabeled PLP was mixed with cy7-PLP to a concentration that is molar equivalent to 20 mg/ml of K-PLP with the amount of dye normalized to the equivalent of 25 μM of free cyanine 7 dye. Each mouse was injected with 10 μl of their respective treatment at the center of the footpad every hour for 4 h in the following order: left forelimb at the 1-h time point, right forelimb at the 2-h time point, left hindlimb at the 3-h time point, and right hindlimb at the 4-h time point for K-PLP; right forelimb at the 1-h time point, left forelimb at the 2-h time point, right hindlimb at the 3-h time point, and left hindlimb at the 4-h time point for both GA and PLP. […]

In the case of “glatiramer acetate [GA, reference compound]”, the “formation of visible aggregates in HA” value in series [1] was “Formation of aggregates was observed immediately”. Besides, the “formation of visible aggregates in the presence of HA (literature)” value in series [2] was “forms large, visible aggregates”. Further, the “remained aggregated after 3 days” value in series [2] (in vitro subcutaneous injection simulation, 3 days) was “Approximately 30%”. In addition, in series [3] (100 μl SC, days 4, 7 and 10, Copaxone 4.5 mg/ml, 9-unit poly-lysine 1.7 mg/ml, 6 mice per group), the “disease progression compared to the control (mannitol)” value is listed as “any deviations from the control were not statistically significant; also recorded: did not significantly improve the clinical outcomes”. The “fluorescence intensity at the footpads over 4 h” value in the series on footpads of mice was “did not significantly decrease over the course of the experiment”.
For “NH2-KKKKKKKKKKK-PEG-PEG-PEG-PEG-HSLGKWLGHPDKF-OH [K-PLP]”, the “formation of visible aggregates in HA” value in series [1] is listed as “visible aggregates were formed immediately”. Moreover, in series [1] (Scissor release profile over 3 days, GA profile from ref 15), the “release rate compared to GA” value is “released at a similar rate as GA”. The “remained in the cartridge at the end of the three-day experiment” value in series [1] (Scissor, 20 mg/ml into 10 mg/ml HA, end of 3 days) is “approximately 20%”. For the same substance, the “plateau of release into the chamber after 2 days” value in series [1] (Scissor, 1 ml of 20 mg/ml in 40 mg/ml mannitol into 10 mg/ml HA, after 2 days, Micro BCA assay) is “around 80%”. Besides, in series [1] (Scissor, 1 ml of 20 mg/ml in 40 mg/ml mannitol into 10 mg/ml HA, first 3 h, Micro BCA assay), the “K-PLP released into the chamber over the first 3 h” value is “approximately 20%”. Besides, the clinical score entry in series [3] (100 μl SC in 40 mg/ml mannitol, 4.5 mg/ml, days 4, 7 and 10, scores to day 25, 6 mice per group) is “lowest clinical score”. Further, the “percentage of disease-free mice” value in series [3] (100 μl SC, days 4, 7 and 10, 6 mice per group) was “highest percentage of disease-free mice”. In addition, in series [3] (100 μl SC, days 4, 7 and 10, % weight change normalized to day 7, 6 mice per group), the weight decrease entry is “least weight decrease”. In addition, the “weight loss from day 13 to day 17 (peak disease)” value in series [3] (compared to 9-unit poly-lysine (p<0.0001) and PLP (p<0.01), two-way ANOVA) was “no significant weight loss”. Besides, the “cumulative clinical scores, day 0 to day 25” value in series [3] (one-way ANOVA, 6 mice per group) is on record as “significant improvement over 9-unit poly-lysine, but not PLP”. Also, in series [4] (10 mg/ml in 150 mM citrate-phosphate buffer pH 6, 632 nm laser, 173° backscattering, method of cumulants, triplicate), the “mean size (DLS)” value was “around 2 nm”. Also, in series [4] (10 mg/ml in 150 mM citrate-phosphate buffer pH 6, over the temperature ramp), the “polydispersity (DLS)” value was “less than 0.3”.
With poly-lysine, in series [2], the “formation of visible aggregates in the presence of HA (literature)” value is “able to form visible aggregates”.
